This is an account of results in US12173026B2, “PRMT5 inhibitors” (Merck Sharp & Dohme LLC, priority 2018, dated 2024).

The test system of assay [1] is symmetric dimethylation of arginine (SDMA) of PRMT5 substrates in MCF-7 cells. Briefly: PRMT5 Cell Target Engagement (TE) Assay. The assay is classed as cell-based. The following applies: MCF-7 cells treated for 3 days; nuclear SDMA by high content imaging; top concentration 10000 nM. A digest of the protocol:
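MCF-7 cells treated 3 days at 37 °C with 10-point 1:3 titration from 10000 nM top. Fixed cells stained with anti-SDMA antibody plus Alexa488 secondary and Hoechst; nuclear fluorescence quantified by high-content imaging versus DMSO wells. EC50 from 4-parameter fit of percent fluorescence vs log concentration.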

For assay [2], the target named is T1, PRMT5-MEP50 enzyme complex (Homo sapiens, UniProt O14744).
T1 construct: Full-length (FL)-PRMT5-MEP50 enzyme complex; made in house; host or cells: baculovirus-transfected Sf21 cells
T1 sequence (O14744 whole entry): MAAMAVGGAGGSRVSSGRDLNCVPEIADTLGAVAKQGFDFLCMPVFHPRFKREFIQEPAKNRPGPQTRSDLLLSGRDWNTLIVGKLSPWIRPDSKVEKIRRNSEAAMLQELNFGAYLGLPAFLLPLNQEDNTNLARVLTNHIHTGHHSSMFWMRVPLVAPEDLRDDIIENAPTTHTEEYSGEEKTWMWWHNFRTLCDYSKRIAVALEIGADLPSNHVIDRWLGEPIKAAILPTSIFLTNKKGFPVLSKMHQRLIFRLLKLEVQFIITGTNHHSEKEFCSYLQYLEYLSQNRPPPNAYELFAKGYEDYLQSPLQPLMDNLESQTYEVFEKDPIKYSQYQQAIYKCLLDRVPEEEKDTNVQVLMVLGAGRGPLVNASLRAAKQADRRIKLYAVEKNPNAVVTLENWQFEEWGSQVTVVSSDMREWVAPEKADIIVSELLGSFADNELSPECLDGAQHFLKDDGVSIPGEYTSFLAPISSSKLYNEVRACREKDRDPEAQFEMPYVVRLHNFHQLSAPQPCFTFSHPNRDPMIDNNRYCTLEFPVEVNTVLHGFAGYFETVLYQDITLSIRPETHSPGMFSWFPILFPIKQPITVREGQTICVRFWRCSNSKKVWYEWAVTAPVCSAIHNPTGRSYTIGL
T1 sequence (Q9BQA1 whole entry partner): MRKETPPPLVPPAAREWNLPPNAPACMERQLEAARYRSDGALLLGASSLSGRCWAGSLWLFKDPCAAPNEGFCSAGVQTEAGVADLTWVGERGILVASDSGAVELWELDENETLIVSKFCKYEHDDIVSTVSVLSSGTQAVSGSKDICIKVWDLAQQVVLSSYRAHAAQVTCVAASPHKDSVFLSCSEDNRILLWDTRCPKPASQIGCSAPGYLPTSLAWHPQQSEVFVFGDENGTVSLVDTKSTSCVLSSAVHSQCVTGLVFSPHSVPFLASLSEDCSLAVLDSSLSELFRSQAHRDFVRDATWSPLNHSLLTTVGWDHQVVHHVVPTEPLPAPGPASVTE
In words: PRMT5-MEP50 Enzyme Methylation Assay. The assay is classed as biochemical. As to conditions: one EC50 shown: 4 parameters single site sigmoidal model; two shown: first EC50 of 7 parameters biphasic model; 1.0 nM PRMT5-MEP50, 75 nM biotinylated H4R3(Me1) peptide, 15 μM SAM; read-out: Enzyme Methylation Assay (EC50 or EC50 1). As for the experimental part: PRMT5-MEP50 Enzyme Methylation Assay
PRMT5-MEP50 biochemical assay is a direct measurement of the methylation activity of the enzyme complex on a short peptide substrate derived from the N-terminus of […]. Methylation experiment is performed with recombinant PRMT5-MEP50 protein complex. The assessment of inhibitory effect of small molecules is measured by the effectiveness of the compounds to inhibit this reaction (EC50).
In this assay, the potency (EC50) of each compound was determined from a twenty-point (1:2 serial dilution; top compound concentration of 100000 nM) titration curve using the following outlined procedure. To each well of a white ProxiPlus 384 well-plate, 100 nL of compound (1% DMSO in final assay volume of 10 μL) was dispensed, followed by the addition of 8 μL of 1× assay buffer (50 mM Bicine pH 8.0, 1 mM DTT, 0.004% Tween20, 0.01% BSA) containing 1.25 nM of Full-length (FL)-PRMT5-MEP50 enzyme complex (recombinant proteins from baculovirus-transfected Sf21 cells: FL-PRMT5; MW=[…] and FL-MEP50; MW=38614) and 1 μL of 150 μM S-(5′-Adenosyl)-L-Methionine Chloride (SAM). Plates were sealed and placed in a 37° C. humidified chamber for a 60 minutes pre-incubation with compound. Subsequently, each reaction was initiated by the addition of 1 μL 1× assay buffer containing 750 nM biotinylated H4R3(Me1) peptide. The final reaction in each well of 10 μL consists of 1.0 nM PRMT5-MEP50, 75 nM biotinylated-peptide, and 15 μM SAM. Methylation reactions proceeded for 150 minutes in a sealed plate at 37° C. Reactions were immediately quenched by the addition of 1 μL of 5% formic acid. Plates were then frozen and shipped to SAMDI™ Tech Inc. to determine the percent conversion from H4R3(Me1) to H4R3(Me2). Dose-response curves were generated by plotting percent effect (% product conversion; Y-axis) vs. Log 10 compound concentrations (X-axis). EC50 values were determined by non-linear regression according to models for either sigmoidal (4 parameters) or biphasic (7 parameters) dose-response curves.

By EC50 is commonly meant the concentration at which the effect is half-maximal. Take `Nc1nc2cc(C[C@@H]3CC[C@@]4(O)[C@@H]3O[C@@H](n3cc(C5CC5)c5c(N)ncnc53)[C@@H]4O)ccc2cc1F` [Example 50]: the EC50 in assay [1] was 0.7 nM; in assay [2] it was 0.3 nM.

In the case of `Nc1nc2cc(CCC3(CF)C[C@@H](n4ccc5c(N)ncnc54)[C@H](O)[C@@H]3O)ccc2cc1Br` (stereo partly drawn) [Example 102], the half-maximal effective concentration (EC50) came out at 2 nM in assay [1] and 0.3 nM in assay [2].

`Nc1nc2cc(O[C@H]3CC[C@@]4(O)[C@@H]3O[C@@H](n3ccc5c(C(F)F)ncnc53)[C@@H]4O)ccc2cc1Br` [Example 79, (2R,3R,3aS,6S,6aR)-6-((2-amino-3-bromoquinolin-7-yl)oxy)-2-(4-(difluoromethyl)-7H-pyrrolo[2,3-d]pyrimidin-7-yl)hexabodro-3aH-cyclopenta[b]furan-3,3a-diol]: the results for the 50% effective concentration (EC50) in assay [1] and in assay [2] were 52.5 nM and 2.9 nM, respectively.
